Experimental data published in patent US20260217653A1, “CRYSTALLINE COMPOUND OF AN LPAR1 ANTAGONIST” (CONTINEUM THERAPEUTICS, INC., priority 2023, published 2026).
pIC50: −log10 of the molar value. Entries after “also recorded” stand apart in the source; their conditions may differ.

Columns and labels:
[1] = Bulk stability of Pattern A (XRPD, HPLC, color) after 1 week storage; assay type: physicochemical; conditions: for Bulk (XRPD) form after storage / Color after storage / Bulk (HPLC) purity after storage: Solid state, 1 week; for Bulk (HPLC) purity after storage: initial purity 99.9%
Protocol: Bulk stability of Pattern A was evaluated at 25° C./92% RH in an open container, at 40° C./75% RH in an open container, and at 60° C. in a tight container over 1 week. […] Pattern A crystalline polymorph was placed at 25° C./92% RH in an open container, at 40° C./75% RH in an open container, and at 60° C. in a closed container for 1 week. Samples after the stress were characterized by XRPD and HPLC and inspected for color change.

[2] = Water sorption and desorption (hygroscopicity) by dynamic vapor sorption (DVS); assay type: physicochemical; conditions: 25° C.
Protocol: Hygroscopicity of Pattern A was evaluated by dynamic vapor sorption (DVS) test at 25° C. with a cycle of 40→0→95→0→40% RH at a rate of change in mass per time unit of 0.002% per minute. […] It absorbed about 1.2% water at 80% RH and 3.1% water at 95% RH at 25° C. (FIG. 8). […] Water sorption and desorption behavior of Pattern A crystalline polymorph was investigated by DVS at 25° C. with a cycle of 40-0-95-0-40% RH, dm/dt 0.002, minimum equilibration time 60 min, and maximum equilibration time 360 min. XRPD was measured after the DVS test to determine form change.

[3] = Dry grinding simulation experiments (mortar and pestle, XRPD); assay type: physicochemical
Protocol: Feasibility of formulation process for Pattern A was evaluated by compression, grinding, and granulation simulation experiments. […] About 20 mg of Pattern A crystalline polymorph was ground manually with a mortar and pestle for 1, 3, and 5 min. Potential form change and degree of crystallinity were evaluated by XRPD.

[4] = Compression simulation experiments (hydraulic press, XRPD); assay type: physicochemical; conditions: for Comments (crystallinity after compression) / XRPD after compression: 5 minutes
Protocol: Feasibility of formulation process for Pattern A was evaluated by compression, grinding, and granulation simulation experiments. […] About 10 mg of Pattern A crystalline polymorph was compressed for 5 minutes under 5 MPa and 10 MPa with a hydraulic press. Potential form change and degree of crystallinity were evaluated by XRPD.

[5] = Wet granulation simulation experiments (XRPD); assay type: physicochemical
Protocol: Feasibility of formulation process for Pattern A was evaluated by compression, grinding, and granulation simulation experiments. […] Water or ethanol was added drop wise to about 20 mg of Pattern A crystalline polymorph until the sample was wetted sufficiently. Wet sample was ground gently with a mortar and pestle. Post granulation sample was dried under ambient condition for 3 min. Potential form change and degree of crystallinity were evaluated by XRPD.

human LPAR1 = target: T1, human LPAR1 (Homo sapiens, UniProt Q92633); assay: In vitro functional assay of lysophosphatidic acid receptor 1 activity (calcium flux, Fluo-4 NW, LPA 18:1 at EC80); assay type: cell-based; conditions: B103 cells stably expressing human LPAR1
T1 construct: by own knowledge a rat neuroblastoma line
Protocol: Primary compound plates were prepared in 100% DMSO (Sigma-Aldrich), secondary compound plates were prepared at 10× concentration in DMEM (Invitrogen), and tertiary compound plates were prepared at 3× concentration in assay buffer containing HBSS (no Ca^+2/Mg^−2. Invitrogen) and 0.1% BSA (Sigma-Aldrich). Fluo-4 NW calcium assay dye (Invitrogen) was prepared as per manufacturer's recommendations in assay buffer. B103 cells stably expressing human LPAR1 (J. Chun lab, UCSD) were grown to confluency in DMEM media (Invitrogen) containing 10% FBS (ATCC), […] (Sigma-Aldrich) and […] (Sigma-Aldrich), and detached with Accutase (Sigma-Aldrich) prior to assay. The freshly detached cells were resuspended in growth media and plated in black, clear-bottom 96-well plates (Costar) containing compound (i.e., secondary compound plate) at a density of 5×10^4 cells/well. Once plated, cells were left at room temperature for 30 minutes and then transferred to a 37° C. 5% CO2 incubator for 24 hours. […] Finally, lysophosphatidic acid (18:1) at the EC80 concentration was added and calcium flux measured using FlexStation 3 (Molecular Devices). Sigmoidal dose-response curves were generated by measuring […] over 45 sec and calculating the area under the curve. […]

[6] = grinding time 1 min, mortar and pestle

T1 sequence (Q92633 whole entry): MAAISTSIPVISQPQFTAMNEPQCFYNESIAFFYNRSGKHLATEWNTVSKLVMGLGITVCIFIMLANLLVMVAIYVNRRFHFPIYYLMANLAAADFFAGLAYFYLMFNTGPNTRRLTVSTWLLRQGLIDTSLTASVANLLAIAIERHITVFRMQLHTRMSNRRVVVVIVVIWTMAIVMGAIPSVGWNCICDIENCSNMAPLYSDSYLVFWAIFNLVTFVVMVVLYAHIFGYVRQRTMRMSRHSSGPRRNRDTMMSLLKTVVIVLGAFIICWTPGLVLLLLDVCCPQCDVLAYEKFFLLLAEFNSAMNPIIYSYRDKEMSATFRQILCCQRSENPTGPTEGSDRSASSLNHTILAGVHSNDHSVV

Q: What does the source list for `COc1ccc(NC(=O)N(c2ccccc2C(C)C)[C@H]2CC[C@H](C(=O)O)CC2)c(OC(F)F)n1` [Pattern A, trans-4-(3-(2-(difluoromethoxy)-6-methoxypyridin-3-yl)-1-(2-isopropylphenyl)ureido)cyclohexane-1-carboxylic acid]?
A: Bulk stability (physical and chemical) ([1]; 25° C./92% RH open container, 40° C./75% RH open container, 60° C. tight container, over 1 week): physically and chemically stable; Bulk (XRPD) form after storage ([1]; 25° C./92% RH, open container): Pattern A (FIG. 7); Color after storage ([1]; 25° C./92% RH, open container): No change; Bulk (HPLC) purity after storage ([1]; 25° C./92% RH, open container): 99.9%; Bulk (XRPD) form after storage ([1]; 40° C./75% RH, open container): Pattern A (FIG. 7); Color after storage ([1]; 40° C./75% RH, open container): No change; Bulk (HPLC) purity after storage ([1]; 40° C./75% RH, open container): 99.9%; Bulk (XRPD) form after storage ([1]; 60° C., tight container): Pattern A (FIG. 7); Color after storage ([1]; 60° C., tight container): No change; Bulk (HPLC) purity after storage ([1]; 60° C., tight container): 99.9%; 1st desorp. Weight % change ([2]; 0% RH): 0.03%; 1st sorp. Weight % change ([2]; 0% RH): 0.03%; 2nd desorp. Weight % change ([2]; 0% RH): 0.00%; 2nd sorp. Weight % change ([2]; 0% RH): 0.00%; 1st desorp. Weight % change ([2]; 10% RH): 0.05%; 1st sorp. Weight % change ([2]; 10% RH): 0.05%; 2nd desorp. Weight % change ([2]; 10% RH): 0.02%; 2nd sorp. Weight % change ([2]; 10% RH): 0.02%; 1st desorp. Weight % change ([2]; 20% RH): 0.05%; 1st sorp. Weight % change ([2]; 20% RH): 0.05%; 2nd desorp. Weight % change ([2]; 20% RH): 0.03%; 2nd sorp. Weight % change ([2]; 20% RH): 0.02%; 1st desorp. Weight % change ([2]; 30% RH): 0.06%; 1st sorp. Weight % change ([2]; 30% RH): 0.05%; 2nd desorp. Weight % change ([2]; 30% RH): 0.03%; 2nd sorp. Weight % change ([2]; 30% RH): 0.02%; 1st desorp. Weight % change ([2]; 40% RH): 0.06%; 1st sorp. Weight % change ([2]; 40% RH): 0.05%; 2nd desorp. Weight % change ([2]; 40% RH): 0.04%; 2nd sorp. Weight % change ([2]; 40% RH): 0.03%; 1st sorp. Weight % change ([2]; 50% RH): 0.06%; 2nd desorp. Weight % change ([2]; 50% RH): 0.35%; 1st sorp. Weight % change ([2]; 60% RH): 0.06%; 2nd desorp. Weight % change ([2]; 60% RH): 0.64%; 1st sorp. Weight % change ([2]; 70% RH): 0.07%; 2nd desorp. Weight % change ([2]; 70% RH): 0.84%; 1st sorp. Weight % change ([2]; 80% RH): 1.15%; 2nd desorp. Weight % change ([2]; 80% RH): 1.16%; Hygroscopicity ([2]; 80% RH): slightly hygroscopic; Water absorbed ([2]; 80% RH): about 1.2%; 1st sorp. Weight % change ([2]; 90% RH): 1.93%; 2nd desorp. Weight % change ([2]; 90% RH): 1.93%; 1st sorp. Weight % change ([2]; 95% RH): 3.06%; 2nd desorp. Weight % change ([2]; 95% RH): 3.06%; Hygroscopicity ([2]; 95% RH): hygroscopic; Water absorbed ([2]; 95% RH): ~3.1%; XRPD after DVS test ([2]; after cycle 40-0-95-0-40% RH): still Pattern A; also recorded: No form change (FIG. 9); Form after manual grinding ([3]; after 3 minutes of grinding with a mortar and pestle): converted to practically amorphous form; Comments (crystallinity after dry grinding) [3, 6]: Peaks becoming broader; also recorded: Partial amorphization; XRPD after dry grinding [3, 6]: Pattern A; XRPD after dry grinding ([3]; grinding time 3 min, mortar and pestle): Almost amorphous; XRPD after dry grinding ([3]; grinding time 5 min, mortar and pestle): Almost amorphous; Comments (crystallinity after compression) ([4]; 5 MPa): Slight decrease in crystallinity; also recorded: Peaks becoming broader; XRPD after compression ([4]; 5 MPa): Pattern A; Comments (crystallinity after compression) ([4]; 10 MPa): Slight decrease in crystallinity; also recorded: Peaks becoming broader; XRPD after compression ([4]; 10 MPa): Pattern A; Crystallinity change upon compression ([4]; compression (5 MPa and 10 MPa)): only slight crystallinity decrease; Form change upon compression ([4]; compression (5 MPa and 10 MPa)): no form change; Comments (crystallinity after wet granulation) ([5]; granulation solvent ethanol): Peaks becoming broader; also recorded: Partial amorphization; also recorded: Significant decrease in; XRPD after wet granulation ([5]; granulation solvent ethanol): Pattern A; Comments (crystallinity after wet granulation) ([5]; granulation solvent water): Significant decrease in; also recorded: Peaks becoming broader; also recorded: Partial amorphization; XRPD after wet granulation ([5]; granulation solvent water): Pattern A; Crystallinity/form upon wet granulation ([5]; wet granulation with ethanol or water): partial amorphization was observed

Q: With `COc1ccc(NC(=O)N(c2ccccc2C(C)C)[C@H]2CC[C@H](C(=O)O)CC2)c(OC(F)F)n1` [trans-4-(3-(2-(difluoromethoxy)-6-methoxypyridin-3-yl)-1-(2-isopropylphenyl)ureido)cyclohexane-1-carboxylic acid] as the molecule, how does the pIC50 (human LPAR1) read?
A: 8.00
